Laboratory results taken from US9181172B2, “Rhein conjugates, preparation method thereof and their uses in producing medicines for treating diabetic nephrosis, intestinal adhesion and osteoarthritis” (priority 2005, dated 2015).

Legend:
[1] = Comparison of metal salts or conjugates hydro-acupuncture (water-carrier) preparation: pH value and clarity; format: physicochemical; details: 2.0 mg/ml in water, as dissolved
Description: Proper amount of different rhein or rhein-containing effective part metal salts or conjugates were put into a 10 ml volumetric flask, added with water, shaken and dissolved for constant volume, and then a water-carrier preparation was obtained. Rhein or rhein-containing effective part sodium salts or sylvan preparation are adjusted to the original pH with diluted hydrochloric acid and the results were shown in Table 4.

rats = assay: Intestinal adhesion in rats; format: in vivo; details: 10 mg/kg once every two days, 7th day
Description: Rats were fasted for 12 h and models were built according to the methods in the literature [Xu Shuyun, Methodology in Pharmacological Experiment (the 3rd version): 1335]. The rats were randomly divided into five groups, namely, model control group, dexamethasone group, rhein sodium group, rhein glucosamine large dose group and low dose group. Each group included 12 rats. […] The rats of the model group were administered with the same volume of NS, while the rats of the positive control group were administered with dexamethasone, administered once every two days, dose: 10 mg/kg. The administration volume was the same as the treatment group. The rats were killed on the 7th day and carried on laparotomy. Adhesion degree was classified and scored respectively. The classification and score of the observed index-adhesion degree can refer to the five-grade classification method prepared by Nair, and determine the classification standard, see Schedule 13. Intestinal adhesion classification adopts Ridit analysis. The test results are as follows (Table 14): […]

obese hyperglycemia mice = assay: Body weight and blood glucose of obese hyperglycemia mice; format: in vivo
Description: 9-week-old obese mice of hyperglycemia were randomly divided into: rhein sodium group, non-treatment group, rosiglitazone group, rhein lysine high-dose group and low-dose group, each group has 6 mice. Kunming mice of the same age were used as the control group, which were fed by conventional feedstuff with free food and water feeding. Rhein lysine conjugates [the dose is 180 mg/kg (0.418 mmol/kg) and 90 mg/kg (0.209 mmol/kg) for intragastric infusion, prepared with distilled water], dose of the rhein sodium group is 130 mg/kg (0.424 mmol/kg), the mixture was dissolved with distilled water, intragastric administration; rosiglitazone group (the dose is 4 mg/kg), the mixture was dissolved with distilled water, intragastric administration, and the rats of the other two groups were administered with the same volume of distilled water, once a day, 12 weeks of administration in succession. The animals' body weight and blood sugar were measured regularly, and statistical analysis was conducted.

[2] = baseline of group given ig 4 mg/kg once a day

Question: What does the source list for `C[N+](C)(C)CC(O)CC(=O)[O-].O=C(O)c1cc(O)c2c(c1)C(=O)c1cccc(O)c1C2=O` [rhein carnitine conjugate, Rhein Carnitine Conjugate]?
Answer: PH value [1]: 6-7; clarity [1]: clear

Question: For `O=C([O-])c1cc(O)c2c(c1)C(=O)c1cccc(O)c1C2=O.[K+]` [Rhein sylvin], which PH value [1] is on record?
Answer: The PH value was 9-10.

Question: And the clarity [1]?
Answer: Its clarity is “clear”.

Question: With `CNC[C@H](O)[C@@H](O)[C@H](O)[C@H](O)CO.O=C(O)c1cc(O)c2c(c1)C(=O)c1cccc(O)c1C2=O` [rhein meglumine conjugate, Rhein Meglumine Conjugate] as the compound, how does the PH value [1] read?
Answer: Its PH value is 6-7.

Question: And the clarity [1]?
Answer: Its clarity is “clear”.

Question: What does the source list for `C[C@@H]1C[C@H]2[C@@H]3CCC4=CC(=O)C=C[C@]4(C)[C@@]3(F)[C@@H](O)C[C@]2(C)[C@@]1(O)C(=O)CO` [dexamethasone]?
Answer: Rating of adhesion degree 0 (rats; number of 12 rats with completely no adhesion): 1; Rating of adhesion degree III (rats; number of 12 rats with more than two adhering zones): 1; Rating of adhesion degree I (rats; number of 12 rats with one adhering zone): 2; Rating of adhesion degree IV (rats; number of 12 rats with organs adhering to abdominal wall directly): 0; Rating of adhesion degree II (rats; number of 12 rats with two adhering zones): 8

Question: For `CN(CCOc1ccc(CC2SC(=O)NC2=O)cc1)c1ccccn1` (stereo not shown) [Rosiglitazone], which “Blood glucose prior to administration” value (obese hyperglycemia mice; [2]) is on record?
Answer: Its value is 29.3 ± 4.7 mmol/L.

Question: What about the “Body weight prior to administration” value (obese hyperglycemia mice; [2]) of the same compound?
Answer: Its value is 29.3 ± 1.7 g.

Question: And the “Blood glucose 6 w after administration” value (obese hyperglycemia mice; ig 4 mg/kg once a day)?
Answer: Its value is 31.1 ± 4.9 mmol/L.

Question: What about the “Blood glucose 9 w after administration” value (obese hyperglycemia mice; ig 4 mg/kg once a day) of the same compound?
Answer: The value was 30.5 ± 4.5 mmol/L.

Question: And the “Blood glucose 12 w after administration” value (obese hyperglycemia mice; ig 4 mg/kg once a day)?
Answer: Its value is 27.9 ± 3.8 mmol/L.

Question: And the “Body weight 6 w after administration” value (obese hyperglycemia mice; ig 4 mg/kg once a day)?
Answer: The value was 42.1 ± 1.9 g.

Question: What about the “Body weight 9 w after administration” value (obese hyperglycemia mice; ig 4 mg/kg once a day) of the same compound?
Answer: The value was 48.2 ± 1.5 g.

Question: What about the “Body weight 12 w after administration” value (obese hyperglycemia mice; ig 4 mg/kg once a day) of the same compound?
Answer: The value was 50.1 ± 1.8 g.
